The assay has as its target Cathepsin S (Homo sapiens, UniProt P25774). Briefly: Cathepsin Enzyme Inhibition Assay: Enzyme activity is measured by observing the increase in fluorescence intensity caused by cleavage of a peptide substrate containing a fluorophore whose emission is quenched in the intact peptide.Assay buffer: 100 mM potassium phosphate pH 6.5, EDTA-Na 5 mM, Triton X-100 0.001%, DTT 5 mM.Enzymes (all at 1 nM): human and mouse Cathepsin S, Cat K, Cat B, Cat L.Substrate (20 Z-Val-Val-Arg-AMC, except for Cat K which uses Z-Leu-Arg-AMC (both from Bachem).Z=Benzyloxycarbonyl.AMC=7-Amino-4-Methyl-Coumarin.DTT=dithiothreitol.Final volume: 100 μL.Excitation 360 nm, Emission 465 nm.Enzyme is added to the substance dilutions in 96-well microtitre plates and the reaction is started with substrate. Fluorescence emission is measured over 20 minutes, during which time a linear increase is observed in the absence of inhibitor.

What is called IC50 is the concentration at which inhibition is half-maximal.

SMILES strings stand for the structures.

Sequence of Cathepsin S (P25774 whole entry): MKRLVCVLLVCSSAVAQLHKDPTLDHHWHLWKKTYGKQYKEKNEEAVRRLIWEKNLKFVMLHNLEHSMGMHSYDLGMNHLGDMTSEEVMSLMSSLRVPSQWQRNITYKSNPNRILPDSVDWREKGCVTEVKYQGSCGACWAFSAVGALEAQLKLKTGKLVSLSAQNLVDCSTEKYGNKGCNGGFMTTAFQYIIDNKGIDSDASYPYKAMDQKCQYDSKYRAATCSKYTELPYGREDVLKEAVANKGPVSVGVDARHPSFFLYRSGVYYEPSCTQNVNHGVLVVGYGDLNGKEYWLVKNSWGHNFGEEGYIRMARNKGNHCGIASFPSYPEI

On to `Cn1c(=O)n(C2CCN(Cc3nc(-c4ccc(C(F)(F)F)cc4)[nH]c3-c3ccccc3)CC2)c2ccccc21`, for which the half-maximal inhibitory concentration (IC50) was 985 nM.
